We go through seven molecules from patent US12497399B2, “Fluorinated integrin antagonists” (OcuTerra Therapeutics, Inc., priority 2013, dated 2025).

In data set [1] the target is T1, αv integrin (Homo sapiens, UniProt P06756).
T1 construct: three primary cell cultures; host or cells: HMVEC primary human dermal microvascular endothelial cells, passages 9-14
The data set can be described thus: Cell adhesion assay: HMVEC adhesion to vitronectin coated plates. It is filed as cell-based. The note with it: human dermal microvascular endothelial cells, 1.5 h at 37° C., read-out: IC50 to block adhesion of HMVEC to vitronectin. As for the experimental part: (§1) The ability of compounds to block adhesion of three primary cell cultures: human dermal microvascular endothelial (HMVEC), rat lung microvascular endothelial (RLMVEC), and rabbit aortic endothelial (RAEC) cells, to vitronectin coated plates was determined using the following procedure.
(§2) Adhesion plates preparation. 96-well plates were coated with vitronectin in PBS, pH 7.4 by incubating 50 μL of the solution (10 μg/ml) for 1.5 h at room temperature or overnight at 4° C. The plates then were blocked with 1% BSA in PBS (30 min at room temperature) and washed with PBS.
(§3) Cell culturing and loading. HMVEC cells (passages (p)9-14) (from Lonza, Allendale, NJ) RLMVEC cells (p4-14) (from Vec Technology, Rensselaer, NY) and RAEC cells (p4-14) (from CellBiologics, Chicago, IL) were used for the compound testing. Cells were grown in T175 tissue culture flasks and dislodged by gentle 3 min treatment with Accutase (Life Technologies). After washing, the cells in suspension in RPMI-1640 (Life Technologies) were loaded with calcein-AM (5 μM) (Life Technologies) for 30 min at 37° C. and re-suspended into RPMI w/o phenol red medium containing 10% FBS.
(§4) Adhesion assay. The cell suspension was aliquoted into the wells at a density of 1.0×10^5 cells/well (RLMVEC) and 5.0×10^4 (HMVEC, and RAEC). The test compounds are added at the same time with the cells. The plates are incubated for 1.5 h at 37° C. […] The wash was performed by 2 cycles of aspiration of the supernatant and addition of 100 μL of the pre-warmed fresh DPBS (Life Technologies). A fluorescence of the remaining cells is measured using multimode plate reader (Victor 2V, PerkinElmer) at an excitation/emission wavelengths of 485/535 nm. The compounds were tested starting with maximal concentration of 1 μM with half-log dilution schedule. IC50 values were calculated with Prism 5 (GraphPad, CA) by fixing the bottom of the curves to a value of blank for empty wells fluorescence.

In data set [2] the test system is αv integrin. The data set is described as follows: Cell adhesion assay: RLMVEC adhesion to vitronectin coated plates. It is filed as cell-based. To be noted: rat lung microvascular endothelial cells, 1.5 h at 37° C., read-out: IC50 to block adhesion of RLMVEC to vitronectin. The protocol: as §1, §2, §3, §4
The test system of data set [3] is αv integrin. The data set can be described thus: Cell adhesion assay: RAEC adhesion to vitronectin coated plates. Type of data set: cell-based. The note with it: rabbit aortic endothelial cells, 1.5 h at 37° C., read-out: IC50 to block adhesion of RAEC to vitronectin. The protocol: as §1, §2, §3, §4
Data set [4] deals with chick chorioallantoic membrane (CAM). The data set is described as follows: Chick chorioallantoic membrane (CAM) anti-angiogenic assay. It is filed as in vivo. The note with it: gelatin sponge graft with test compound and 50 ng VEGF; FIG. 1.
Experimental: CAM surfaces were grafted with gelatin sponges impregnated with the concentrations of test compounds and 50 ng VEGF dissolved in PBS. Untreated CAM received only VEGF and PBS. Error bars represent SEM, N=5, P values for the treated groups were calculated by comparing with the untreated group (*p<0.05, **p<0.01, ***p<0.001). Test Substance Preparation: Test samples and standards were dissolved in PBS and sterilized by passing through a syringe filter (0.22 μm). hVEGF(SIGMA) 50 ng/μl was prepared in sterile PBS. Grafting: Gelatin sponge (Abogel) was cut in approximately 2 mm^3 pieces and loaded with required test substance or PBS and VEGF. The graft was placed on the CAM. Eggs: Fertile hen eggs were procured from a hatchery and were cleaned and decontaminated using alcohol. 1 ml of albumin was removed using a syringe and incubated for 8 days. Grafts were placed on developing CAMs and further incubated to day 12. On day 12, CAMs were fixed with 4% formaldehyde in PBS, dissected and imaged. Imaging: Fixed CAMs were imaged under constant illumination and magnification under a stereomicroscope fitted with a digital camera (CANON). Image analysis: Images were analyzed on MS PowerPoint keeping the image size constant. A ring was drawn around the graft and the size was kept constant. Blood vessels crossing the ring were counted for each test group.
Data set [5] can be described thus: Distribution in plasma, aqueous humor, vitreous humor and retina after topical ocular administration. To be noted: 50 μL/eye, 1.0-2.5 mg/mL, 0.5 or 1.0 and 8 hours, FIGS. 2, 3, 4. It is filed as in vivo, Dutch Belted rabbits.
Experimental: The plasma concentrations and ocular distribution (aqueous humor, vitreous humor, and retina) of Compounds A1, A2, and A3 were determined following topical ocular administration in Dutch Belted rabbits. […] Aqueous humor, vitreous humor, and retina were collected from each eye at each time point post-dose. Also, weights were recorded. Plasma and ocular sample concentrations of the compounds were determined by LC-MS/MS.
Animal Dosing: The exposure of compounds A1, A2, and A3 was evaluated in Dutch Belted rabbits. The study was not blinded. Each compound was dosed as n=3/time point for a total of nine rabbits. Rabbits were housed one per cage. Animals were not fasted, and food and water were supplied ad libitum.
Animals were anesthetized following the 13IA5 IACUC protocol for the dosing. Each rabbit received a bolus dose of test formulation via topical ocular administration into both eyes at time zero on the day of dosing. Plasma and ocular samples were collected at pre-determined time points. Animals for the 30-minute and 1-hour time points were anesthetized for the entire duration of the study. The animals for the 8-hour time point were recovered after dosing and then euthanized for sampling purposes.
At each time point, approximately 0.5 mL of blood was collected and placed into chilled Na-heparin tubes containing citric acid. Blood samples were centrifuged at a speed of 3,000 g for 5 minutes to obtain plasma as quickly as possible. Samples were stored frozen at −80° C. until analysis. Animals were euthanized per the 13IA5 IACUC protocol and both eyes were enucleated immediately. Following enucleation, each eye was rinsed with PBS. Ocular samples from both eyes of each animal were collected and weights were recorded. All the samples were frozen immediately on dry ice, and stored at −60 to −80° C. for analysis.
Analysis of Plasma and Ocular Samples: An LC-MS/MS method was developed for the determination of Compounds A1, A2, and A3 in rabbit plasma and ocular samples.
Data set [6] deals with laser-induced choroidal neovascularization. The data set can be described thus: Laser-induced choroidal neovascularization (CNV) model. To be noted: twice daily topical administration, 50 μL; fluorescein angiography day 35; FIG. 5. Type of data set: in vivo, Dutch Belted rabbits.
Experimental: Healthy male animals weighing between 1.5 and 2.0 kg were used in these studies. Animals were weighed prior to dosing and at euthanasia, and more often if needed. Baseline fundus photography and fluorescein angiography was performed on each animal prior to CNV induction.
Animals were anesthetized with an intramuscular injection of ketamine hydrochloride (20 mg/kg) and xylazine (2 mg/kg) for CNV induction, fundus photography, fluorescein angiography, and intravitreal (IVT) injections. Rabbits were maintained on isoflurane (approximatelyl to 3%) in oxygen (approximately 1 to 2 L/min) as necessary. One drop of topical proparacaine hydrochloride anesthetic (0.5%) was placed in each eye before procedures. Additional topical ocular anesthesia was utilized during the procedure if needed.
CNV was induced by laser photocoagulation treatment. […]
Clinical ophthalmic exams (slit-lamp biomicroscopy and indirect ophthalmoscopy), fundus photography, and fluorescein angiography were performed at baseline and then weekly for up to 6 weeks post-induction. Exams were scored using the McDonald-Shadduck Score System. […]
At the conclusion of the study, animals were euthanized per the 13C232Q3 IACUC protocol and both eyes enucleated immediately. […] Ocular samples (aqueous humor, vitreous humor retina and choroid) from both eyes of each animal were collected and weights were recorded. […]

Broadly, the IC50 is the midpoint of a concentration-inhibition curve.

T1 sequence (P06756 31-1048): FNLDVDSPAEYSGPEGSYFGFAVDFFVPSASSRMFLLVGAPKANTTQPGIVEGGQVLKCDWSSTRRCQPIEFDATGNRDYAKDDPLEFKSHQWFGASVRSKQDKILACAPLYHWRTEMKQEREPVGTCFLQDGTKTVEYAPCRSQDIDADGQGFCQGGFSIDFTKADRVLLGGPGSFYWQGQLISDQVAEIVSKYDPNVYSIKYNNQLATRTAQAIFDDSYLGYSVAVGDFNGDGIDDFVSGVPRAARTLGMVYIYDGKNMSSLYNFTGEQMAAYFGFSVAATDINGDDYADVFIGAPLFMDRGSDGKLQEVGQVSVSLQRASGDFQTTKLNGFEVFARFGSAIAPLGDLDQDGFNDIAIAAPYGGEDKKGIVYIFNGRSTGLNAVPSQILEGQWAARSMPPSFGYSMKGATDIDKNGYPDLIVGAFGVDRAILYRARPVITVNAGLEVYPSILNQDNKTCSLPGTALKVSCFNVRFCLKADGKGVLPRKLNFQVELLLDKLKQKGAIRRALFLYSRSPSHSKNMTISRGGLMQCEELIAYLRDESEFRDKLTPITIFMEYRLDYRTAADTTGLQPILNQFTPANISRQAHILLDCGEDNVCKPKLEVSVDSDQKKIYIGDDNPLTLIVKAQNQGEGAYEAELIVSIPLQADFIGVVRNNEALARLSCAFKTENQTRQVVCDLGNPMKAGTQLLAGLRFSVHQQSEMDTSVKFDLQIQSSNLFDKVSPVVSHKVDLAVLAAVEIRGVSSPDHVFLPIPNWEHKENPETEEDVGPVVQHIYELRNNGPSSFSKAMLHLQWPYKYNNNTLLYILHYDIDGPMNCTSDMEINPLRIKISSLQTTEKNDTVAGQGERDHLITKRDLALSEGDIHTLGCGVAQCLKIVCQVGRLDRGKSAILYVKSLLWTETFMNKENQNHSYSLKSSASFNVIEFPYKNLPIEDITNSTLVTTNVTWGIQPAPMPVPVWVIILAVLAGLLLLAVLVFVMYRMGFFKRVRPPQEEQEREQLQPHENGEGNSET

On to `O=C(O)C[C@@H](c1ccc(OC(F)F)nc1)N1CCN(CCCc2ccc3c(n2)NCCC3)C1=O` [Compound A1, (S)-3-(6-(difluoromethoxy)pyridin-3-yl)-3-(2-oxo-3-(3-(5,6,7,8-tetrahydro-1,8-naphthyridin-2-yl)propyl)imidazolidin-1-yl)propanoic acid], for which the IC50 in data set [1] stood at 0.0094 µM; in data set [2] it was 0.031 µM; in data set [3], 0.0084 µM. The “anti-angiogenic activity: number of blood vessels vs untreated control” value in data set [4] is listed as “significantly decreases the number of blood vessels”. Besides, the “distribution to the retina” value in data set [5] is “efficiently distributed to the retina”. In addition, the “reduction of laser-induced choroidal neovascularization vs vehicle control” value in data set [6] is “effectively reduced laser-induced choroidal neovascularization”.
On to `O=C(O)CC(CCCCCCc1ccc2c(n1)NCCC2)c1cnc(C(F)(F)F)nc1` (stereo not shown) [Compound A2, 9-(5,6,7,8-tetrahydro-1,8-naphthyridin-2-yl)-3-(2-(trifluoromethyl)pyrimidin-5-yl)nonanoic Acid], for which the IC50 is 0.16 µM in data set [1], 0.068 µM in data set [2] and 0.016 µM in data set [3]. In addition, the “anti-angiogenic activity: number of blood vessels vs untreated control” value in data set [4] was “significantly decreases the number of blood vessels”. For the same molecule, in data set [5], the “distribution to the retina” value is reported as “efficiently distributed to the retina”. The “reduction of laser-induced choroidal neovascularization vs vehicle control” value in data set [6] is given as “effectively reduced laser-induced choroidal neovascularization”.
As to `O=C(O)CC(CCCCCCc1ccc2c(n1)NCCC2)c1ccc(OC(F)F)nc1` (stereo not shown) [Compound A3, 3-(6-(difluoromethoxy)pyridin-3-yl)-9-(5,6,7,8-tetrahydro-1,8-naphthyridin-2-yl)nonanoic Acid], the IC50 in data set [1] is 0.62 µM; in data set [2], 0.23 µM; in data set [3], 0.059 µM. In addition, the “distribution to the retina” value in data set [5] is “efficiently distributed to the retina”.
With `O=C(O)CC(CCCCCCc1ccc2c(n1)NCCC2)c1cnc2ccc(F)cc2c1` (stereo not shown) [Compound A4, 3-(6-fluoroquinolin-3-yl)-9-(5,6,7,8-tetrahydro-1,8-naphthyridin-2-yl)nonanoic Acid], the IC50 came to 0.042 µM in data set [1], 0.032 µM in data set [2] and 0.0085 µM in data set [3].
Regarding `O=C(O)CC(CCCCCCc1ccc2c(n1)NCCC2)c1cnc2cc(F)ccc2c1` (stereo not shown) [Compound A5, 3-(7-fluoroquinolin-3-yl)-9-(5,6,7,8-tetrahydro-1,8-naphthyridin-2-yl)nonanoic Acid], the values for the IC50 in data set [1], in data set [2] and in data set [3] were 0.25 µM, 0.037 µM and 0.02 µM, respectively.
The corresponding values for `O=C(O)CC(CCCCCCc1ccc2c(n1)NCCC2)c1cnc2cc(F)c(F)cc2c1` (stereo not shown) [Compound A6, 3-(6,7-difluoroquinolin-3-yl)-9-(5,6,7,8-tetrahydro-1,8-naphthyridin-2-yl)nonanoic Acid] are 0.044 µM, 0.0055 µM and 0.044 µM.
The corresponding values for `O=C(O)CC(CCCCCCc1ccc2c(n1)NCCC2)c1cnc2cc(C(F)(F)F)ccc2c1` (stereo not shown) [Compound A7, 9-(5,6,7,8-tetrahydro-1,8-naphthyridin-2-yl)-3-(7-(trifluoromethyl)quinolin-3-yl)nonanoic Acid] are 0.13 µM, 0.4 µM and 0.21 µM.
